In patent US11634393B2, “Substituted tolyl fungicides” (FMC CORPORATION, priority 2018, dated 2023):
Blank lines part the entries; values can stand above or below the compound they belong to.

Key:
[1] = tested on: Puccinia recondita f. sp. tritici; assay: Test B: wheat leaf rust, spray on wheat seedlings, disease control rating; assay type: in vivo; details: Rate 10 ppm, 100 = 100% disease control, 0 = no disease control relative to the controls; for pest or weed control at 10 ppm: Puccinia recondita, 192 h
Text: (§1) General protocol for preparing test suspensions for Tests A-F: the test compounds were first dissolved in acetone in an amount equal to 3% of the final volume and then suspended at the desired concentration (in ppm) in acetone and purified water (50/50 mix by volume) containing 250 ppm of the surfactant PEG400 (polyhydric alcohol esters). The resulting test suspensions were then used in Tests A-F.
The test solution was sprayed to the point of run-off on wheat seedlings. The following day the seedlings were inoculated with a spore suspension of Puccinia recondita f. sp. tritici (the causal agent of wheat leaf rust) and incubated in a saturated atmosphere at 20° C. for 24 h, and then moved to a growth chamber at 20° C. for 7 days, after which time disease ratings were made.
(§2) A rating of 100 indicates 100% disease control and a rating of 0 indicates no disease control (relative to the controls). A dash (-) indicates the compound was not tested.

Phakopsora pachyrhizi = assay: Test D: Asian soybean rust, spray on soybean seedlings, disease control rating; assay type: in vivo; details: Rate 10 ppm, 100 = 100% disease control, 0 = no disease control relative to the controls; for pest or weed control at 10 ppm: Phakopsora pachyrhizi, 216 h
Text: as §1
The test solution was sprayed to the point of run-off on soybean seedlings. The following day the seedlings were inoculated with a spore suspension of Phakopsora pachyrhizi (the causal agent of Asian soybean rust) and incubated in a saturated atmosphere at 22° C. for 24 h and then moved to a growth chamber at 22° C. for 8 days, after which time visual disease ratings were made.
as §2

melting point: 142 to 143 °C
Compound: COC(=O)NCc1cc(-c2ccn(-c3c(F)cccc3F)n2)ccc1C [Compound 4, methyl N-[[5-[1-(2,6-difluorophenyl)-1H-pyrazol-3-yl]-2-methylphenyl]-methyl]carbamate]
pest or weed control at 10 ppm [1]: 90% | pest or weed control at 10 ppm (Phakopsora pachyrhizi): 100%

Compound: COC(=O)NCc1cc(-c2ccn(-c3c(F)cc(CO)cc3F)n2)ccc1C [Compound 71, methyl N-[[5-[1-[2,6-difluoro-4-(hydroxymethyl)phenyl]-1H-pyrazol-3-yl]-2-methylphenyl]methyl]carbamate]
pest or weed control at 10 ppm [1]: 0% | pest or weed control at 10 ppm (Phakopsora pachyrhizi): 25%

Compound: COC(=O)NCc1cc(-c2ccn(-c3c(F)cc(C=NO)cc3F)n2)ccc1C [Compound 72]
Test B disease control rating [1]: 100% | Test D disease control rating (Phakopsora pachyrhizi): 77%

Compound: COC(=O)NCc1cc(-c2ccn(-c3c(F)cc(OCF)cc3F)n2)ccc1C [Compound 73]
pest or weed control at 10 ppm [1]: 100% | pest or weed control at 10 ppm (Phakopsora pachyrhizi): 100%

Compound: COC(=O)NCc1cc(-c2ccn(-c3c(F)cc(CC(C)=O)cc3F)n2)ccc1C [Compound 75]
Test B disease control rating [1]: 0% | Test D disease control rating (Phakopsora pachyrhizi): 87%

Compound: COC(=O)NCc1cc(-c2ccn(-c3c(F)cc(C(OC)C(C)=O)cc3F)n2)ccc1C (stereo not shown) [Compound 76]
Test B disease control rating [1]: 68% | Test D disease control rating (Phakopsora pachyrhizi): 100%

Compound: COC(=O)NCc1cc(-c2ccn(-c3c(F)cc(CF)cc3F)n2)ccc1C [Compound 77]
pest or weed control at 10 ppm [1]: 100% | pest or weed control at 10 ppm (Phakopsora pachyrhizi): 100%

Compound: COC(=O)NCc1cc(-c2ccn(-c3c(F)cc(OC(F)(F)F)cc3F)n2)ccc1C [Compound 78, methyl N-[[5-[1-[2,6-difluoro-4-(trifluoromethoxy)phenyl]-1H-pyrazol-3-yl]-2-methylphenyl]methyl]carbamate]
pest or weed control at 10 ppm [1]: 100% | pest or weed control at 10 ppm (Phakopsora pachyrhizi): 100%

Compound: CON=Cc1cc(F)c(-n2ccc(-c3ccc(C)c(CNC(=O)OC)c3)n2)c(F)c1 [Compound 79]
Test B disease control rating [1]: 100% | Test D disease control rating (Phakopsora pachyrhizi): 100%

Compound: CCON=Cc1cc(F)c(-n2ccc(-c3ccc(C)c(CNC(=O)OC)c3)n2)c(F)c1 [Compound 80]
Test B disease control rating [1]: 100% | Test D disease control rating (Phakopsora pachyrhizi): 100%

Compound: C=CCON=Cc1cc(F)c(-n2ccc(-c3ccc(C)c(CNC(=O)OC)c3)n2)c(F)c1 [Compound 81]
Test B disease control rating [1]: 92% | Test D disease control rating (Phakopsora pachyrhizi): 100%

Compound: COC(=O)NCc1cc(-c2ccn(-c3c(F)cc(C=NOC(C)C)cc3F)n2)ccc1C [Compound 82]
Test B disease control rating [1]: 95% | Test D disease control rating (Phakopsora pachyrhizi): 100%

Compound: CON=C(C)c1cc(F)c(-n2ccc(-c3ccc(C)c(CNC(=O)OC)c3)n2)c(F)c1 [Compound 83, methyl N-[[5-[1-[2,6-difluoro-4-[1-(methoxyimino)ethyl]phenyl]-1H-pyrazol-3-yl]-2-methylphenyl]methyl]carbamate]
pest or weed control at 10 ppm [1]: 100% | pest or weed control at 10 ppm (Phakopsora pachyrhizi): 100%

Compound: CCON=C(C)c1cc(F)c(-n2ccc(-c3ccc(C)c(CNC(=O)OC)c3)n2)c(F)c1 [Compound 84]
Test B disease control rating [1]: 100% | Test D disease control rating (Phakopsora pachyrhizi): 100%

Compound: C=CCON=C(C)c1cc(F)c(-n2ccc(-c3ccc(C)c(CNC(=O)OC)c3)n2)c(F)c1 [Compound 85]
Test B disease control rating [1]: 90% | Test D disease control rating (Phakopsora pachyrhizi): 98%

Compound: COC(=O)NCc1cc(-c2ccn(-c3c(F)cc(C(C)=NOC(C)C)cc3F)n2)ccc1C [Compound 86]
Test B disease control rating [1]: 99% | Test D disease control rating (Phakopsora pachyrhizi): 100%

Compound: COC(=O)NCc1cc(-c2ccn(-c3c(F)cc(C(F)F)cc3F)n2)ccc1C [Compound 87, methyl N-[[5-[1-[4-(difluoromethyl)-2,6-difluorophenyl]-1H-pyrazol-3-yl]-2-methylphenyl]methyl]carbamate]
pest or weed control at 10 ppm [1]: 100% | pest or weed control at 10 ppm (Phakopsora pachyrhizi): 100%

Compound: COC(=O)NCc1cc(-c2ccn(-c3c(F)cc(C4CC4(Cl)Cl)cc3F)n2)ccc1C (stereo not shown) [Compound 88]
Test B disease control rating [1]: 100% | Test D disease control rating (Phakopsora pachyrhizi): 100%

Compound: COC(=O)NCc1cc(-c2ccn(-c3c(F)cc(OC4CCCC4)cc3F)n2)ccc1C [Compound 90]
Test B disease control rating [1]: 86% | Test D disease control rating (Phakopsora pachyrhizi): 100%

Compound: COC(=O)NCc1cc(-c2ccn(-c3c(F)cc(OC4CCCCC4)cc3F)n2)ccc1C [Compound 91]
Test B disease control rating [1]: 86% | Test D disease control rating (Phakopsora pachyrhizi): 79%

Compound: CCC(C)Oc1cc(F)c(-n2ccc(-c3ccc(C)c(CNC(=O)OC)c3)n2)c(F)c1 (stereo not shown) [Compound 92]
Test B disease control rating [1]: 100% | Test D disease control rating (Phakopsora pachyrhizi): 100%

Compound: COC(=O)NCc1cc(-c2ccn(-c3c(F)cc(OC(C)(C)C)cc3F)n2)ccc1C [Compound 93]
Test B disease control rating [1]: 100% | Test D disease control rating (Phakopsora pachyrhizi): 100%

Compound: C=CCOc1cc(F)c(-n2ccc(-c3ccc(C)c(CNC(=O)OC)c3)n2)c(F)c1 [Compound 94]
Test B disease control rating [1]: 85% | Test D disease control rating (Phakopsora pachyrhizi): 99%

Compound: COC(=O)NCc1cc(-c2ccn(-c3c(F)cc(C(C)(C)O)cc3F)n2)ccc1C [Compound 95]
Test B disease control rating [1]: 0% | Test D disease control rating (Phakopsora pachyrhizi): 53%

Compound: COC(=O)NCc1cc(-c2ccn(-c3c(F)cc(C(C)O)cc3F)n2)ccc1C (stereo not shown) [Compound 96]
Test B disease control rating [1]: 68% | Test D disease control rating (Phakopsora pachyrhizi): 79%

Compound: COC(=O)NCc1cc(-c2ccn(-c3c(F)cc(C(C)(C)F)cc3F)n2)ccc1C [Compound 97]
Test B disease control rating [1]: 100% | Test D disease control rating (Phakopsora pachyrhizi): 100%

Compound: COC(=O)NCc1cc(-c2ccn(-c3c(F)cc(OC4CC(F)(F)C4)cc3F)n2)ccc1C [Compound 98]
Test B disease control rating [1]: 99% | Test D disease control rating (Phakopsora pachyrhizi): 100%

Compound: CON=C(C)c1cc(F)c(-n2ccc(-c3ccc(C)c(CNC(=O)OC)c3)n2)c(F)c1 [Compound 99]
Test B disease control rating [1]: 100% | Test D disease control rating (Phakopsora pachyrhizi): 100%

melting point: 136 to 140 °C
Compound: COC(=O)NCc1cc(-c2ncn(-c3c(F)cc(N)cc3F)n2)ccc1C [Compound 106]

Compound: COC(=O)NCc1cc(-c2cnn(-c3c(F)cc(CC(C)C)cc3F)n2)ccc1C [Compound 109]
pest or weed control at 10 ppm [1]: 91% | pest or weed control at 10 ppm (Phakopsora pachyrhizi): 100%

Compound: C=C(C)c1cc(F)c(-n2ncc(-c3ccc(C)c(CNC(=O)OC)c3)n2)c(F)c1 [Compound 110]
Test B disease control rating [1]: 95% | Test D disease control rating (Phakopsora pachyrhizi): 100%

melting point: 122 to 126 °C
Compound: COC(=O)NCc1cc(-c2cnn(-c3c(F)cccc3F)n2)ccc1C [Compound 112]

Compound: COC(=O)NCc1cc(-c2cnn(-c3c(F)cc(Cl)cc3F)n2)ccc1C [Compound 117, methyl N-[[5-[2-(4-chloro-2,6-difluorophenyl)-2H-1,2,3-triazol-4-yl]-2-methylphenyl]methyl]carbamate]
pest or weed control at 10 ppm [1]: 100% | pest or weed control at 10 ppm (Phakopsora pachyrhizi): 100%

Compound: COC(=O)NCc1cc(-c2cn(-c3c(OC)cc(OC)cc3OC)nn2)ccc1C [Compound 127]
pest or weed control at 10 ppm [1]: 0% | pest or weed control at 10 ppm (Phakopsora pachyrhizi): 0%

melting point: 194 to 198 °C
Compound: COC(=O)NCc1cc(-c2cn(-c3c(F)cc(N)cc3F)nn2)ccc1C [Compound 131, methyl N-[[5-[1-(4-amino-2,6-difluorophenyl)-1H-1,2,3-triazol-4-yl]-2-methylphenyl]methyl]carbamate]

Compound: COC(=O)NCc1cc(-c2ccn(-c3c(F)cc(C4OCCO4)cc3F)n2)ccc1C [Compound 133]
pest or weed control at 10 ppm [1]: 99% | pest or weed control at 10 ppm (Phakopsora pachyrhizi): 100%

Compound: COC(=O)NCc1cc(-c2ccn(-c3c(F)cc(C4OCCCO4)cc3F)n2)ccc1C [Compound 134]
pest or weed control at 10 ppm [1]: 89% | pest or weed control at 10 ppm (Phakopsora pachyrhizi): 100%

Compound: COC(=O)NCc1cc(-c2ccn(-c3c(Cl)cc(C(C)C)cc3Cl)n2)ccc1C [Compound 135]
pest or weed control at 10 ppm [1]: 86% | pest or weed control at 10 ppm (Phakopsora pachyrhizi): 100%

Compound: COC(=O)NCc1cc(-c2ccn(-c3c(Br)cc(I)cc3Br)n2)ccc1C [Compound 136]
pest or weed control at 10 ppm [1]: 19% | pest or weed control at 10 ppm (Phakopsora pachyrhizi): 59%

Compound: C=C(C)c1cc(Br)c(-n2ccc(-c3ccc(C)c(CNC(=O)OC)c3)n2)c(Br)c1 [Compound 137]
Test B disease control rating [1]: 0% | Test D disease control rating (Phakopsora pachyrhizi): 77%

Compound: COC(=O)NCc1cc(-c2ccn(-c3c(Cl)cc(C(F)(C(F)(F)F)C(F)(F)F)cc3Cl)n2)ccc1C [Compound 138]
Test B disease control rating [1]: 74% | Test D disease control rating (Phakopsora pachyrhizi): 87%

Compound: COC(=O)NCc1cc(-c2cnn(-c3c(F)cc(C(C)=O)cc3F)n2)ccc1C [Compound 140]
Test B disease control rating [1]: 41% | Test D disease control rating (Phakopsora pachyrhizi): 71%

Compound: CCON=C(C)c1cc(F)c(-n2ncc(-c3ccc(C)c(CNC(=O)OC)c3)n2)c(F)c1 [Compound 142]
Test B disease control rating [1]: 86% | Test D disease control rating (Phakopsora pachyrhizi): 100%

Compound: COC(=O)NCc1cc(-c2cnn(-c3c(F)cc(C(C)=NOC(C)C)cc3F)n2)ccc1C [Compound 143]
Test B disease control rating [1]: 74% | Test D disease control rating (Phakopsora pachyrhizi): 100%

Compound: methyl N-[[5-[1-(2,6-difluoro-4-methoxyphenyl)-1H-pyrazol-3-yl]-2-methylphenyl]methyl]carbamate [Compound 33]
Test B disease control rating [1]: 99% | Test D disease control rating (Phakopsora pachyrhizi): 100%
